In this assay the test system is mice neuroblastoma cells (HT-22). Put plainly: Determination of Cellular Protection (HT22). The conditions noted are these: Mus musculus, HT-22, 16 h, read-out: HT22 IC50.

Turning to `CC1CCC(C)N1c1ccc2c(c1)/C(=C1\COCCCN1)C(=O)N2C1CCOCC1` (centres unmarked) [Compound 142], the IC50 stood at 94 nM. For `O=C1/C(=C2/COCCN2)c2cc(NC3CCOCC3)ccc2N1C1CCOCC1` [Compound 18], the IC50 came to 409 nM. On to `CC(C)Nc1ccc2c(c1)/C(=C1\COCCN1)C(=O)N2C(C)C` [Compound 44], for which the IC50 came to 30 nM. In the case of `CN1CCC/C1=C1/C(=O)N(C2CCOCC2)c2ccc(NC3CCOC3)cc21` (centres unmarked) [Compound 49] it was 1250 nM.

As for `CN(C)c1ccc2c(c1)/C(=C1\CCCCCN1)C(=O)N2C` [Compound 105], the concentration for half-maximal inhibition (IC50) stood at 91 nM. As for `CC(C)Nc1ccc2c(c1)/C(=C1\CCOCCN1)C(=O)N2C(C)C` [Compound 82], the half-maximal inhibitory concentration (IC50) came to 26 nM. On to `CCOC(=O)N1CCC(N2C(=O)/C(=C3/COCCN3)c3cc(N4CCCC4)ccc32)CC1` [Compound 118], for which the IC50 came out at 33 nM.

For `CC(Nc1ccc2c(c1)/C(=C1\COCCN1)C(=O)N2C1CCOCC1)C1CC1` (centres unmarked) [Compound 20], the IC50 amounted to 34 nM.

Consider `O=C1/C(=C2/COCCN2)c2cc(NCC3CC3)ccc2N1C1CCOCC1` [Compound 103], for which the IC50 worked out at 105 nM. For `CN(C)c1ccc2c(c1)/C(=C1\CCN(C(=O)OCc3ccccc3)CCN1)C(=O)N2C` [Compound 108], the IC50 is 128 nM. In the case of `CC(Nc1ccc2c(c1)/C(=C1\COCCN1)C(=O)N2C(C)C)c1nccs1` (centres unmarked) [Compound 144] it was 85 nM; in that of `CN1C(=O)/C(=C2/COCCN2)c2cc(NC3CCC3)ccc21` [Compound 154], 18 nM.

For `CC(C)N1C(=O)/C(=C2/CCOCCN2)c2cc(N3C(C)CCC3C)ccc21` (centres unmarked) [Compound 128], the IC50 amounted to 47 nM.

Consider `CC(=O)N1CCN/C(=C2\C(=O)N(C(C)C)c3ccc(NC(C)C)cc32)C1` [Compound 159], for which the IC50 was 80 nM. In the case of `CC(=O)N1CCC2(CC1)CN/C(=C1\C(=O)N(C(C)C)c3ccc(NC(C)C)cc31)CO2` [Compound 34], the IC50 came out at 49 nM. As for `CN1C(=O)/C(=C2/CCN(C(=O)OCc3ccccc3)CCN2)c2cc(N3CCCC3)ccc21` [Compound 152], the IC50 was determined as 47 nM. As to `O=C1/C(=C2/CCOCCN2)c2cc(NC3CCCC3)ccc2N1C1CCOCC1` [Compound 13], the IC50 is 14 nM.

`CC(C)N1C(=O)/C(=C2/CCCCN2)c2cc(N3CCOCC3)ccc21` [Compound 158]: the IC50 amounted to 2070 nM. As for `CN(C)c1ccc2c(c1)/C(=C1/NCCN1c1ccccc1)C(=O)N2C` [Compound 106], the concentration for half-maximal inhibition (IC50) is 142 nM.

On to `CC1COC/C(=C2/C(=O)N(C3CCOCC3)c3ccc(N4C(C)CCC4C)cc32)N1` (centres unmarked) [Compound 93], for which the IC50 worked out at 101 nM.

Take `CC1CCCC1Nc1ccc2c(c1)/C(=C1\COCCN1)C(=O)N2C(C)C` (centres unmarked) [Compound 124]: the half-maximal inhibitory concentration (IC50) came to 15 nM.

For the compound `O=C1C(=C2CCOCC2)c2cc(N3CCCC3)ccc2N1C1CCOCC1` [Compound 112], the half-maximal inhibitory concentration (IC50) came out at 86 nM. In the case of `O=C1/C(=C2/COCCN2)c2cc(NC3CCC(F)(F)CC3)ccc2N1C1CCOCC1` [Compound 78] it was 37 nM. For the compound `CC1CCC(C)N1c1ccc2c(c1)/C(=C1\COCCN1)C(=O)N2C1CCOC1` (centres unmarked) [Compound 162], the IC50 stood at 61 nM. As for `COC1COCCC1Nc1ccc2c(c1)/C(=C1\COCCN1)C(=O)N2C1CCOCC1` (centres unmarked) [Compound 149], the IC50 was 2940 nM. In the case of `CC(Nc1ccc2c(c1)/C(=C1\COCCN1)C(=O)N2C1CCOCC1)c1cnccn1` (centres unmarked) [Compound 146] it was 211 nM; in that of `CCC(C)Nc1ccc2c(c1)/C(=C1\COCCN1)C(=O)N2C(C)C` (centres unmarked) [Compound 54], 24 nM; in that of `CN1C(=O)/C(=C2/CCNCCN2)c2cc(N3CCCC3)ccc21` [Compound 40], 13 nM.

In the case of `CC(C)Nc1ccc2c(c1)/C(=C1\CCN(C(C)C)CCN1)C(=O)N2C1CCOCC1` [Compound 164], the half-inhibitory concentration (IC50) came to 30 nM. As to `CN1CCC/C1=C1/C(=O)N(C2CCOCC2)c2ccc(NC3CCC3)cc21` [Compound 9], the IC50 stood at 38 nM. In the case of `CC(C)N1C(=O)/C(=C2/COCCN2)c2cc(NC3CCOCC3F)ccc21` (centres unmarked) [Compound 73] it was 264 nM. As for `CC1OCCC1Nc1ccc2c(c1)/C(=C1\COCCN1)C(=O)N2C(C)C` (centres unmarked) [Compound 125], the IC50 is 112 nM.

For `CC1CCN(c2ccc3c(c2)/C(=C2\COCCN2)C(=O)N3C2CCOCC2)CC1` [Compound 85], the IC50 stood at 264 nM. In the case of `COC1COCCC1Nc1ccc2c(c1)/C(=C1\COCCN1)C(=O)N2C(C)C` (centres unmarked) [Compound 16] it was 693 nM; in that of `CN1C(=O)/C(=C2/CCN(C3CCOC3)CCN2)c2cc(N3CCCC3)ccc21` (centres unmarked) [Compound 155], 214 nM; in that of `CC(Nc1ccc2c(c1)/C(=C1\COCCN1)C(=O)N2C(C)C)c1cccnc1` (centres unmarked) [Compound 15], 115 nM.

`CC(C)N1C(=O)/C(=C2/COCCN2)c2cc(NCC3CCOC3)ccc21` (centres unmarked) [Compound 39]: the IC50 amounted to 102 nM. Consider `CN(C)c1ccc2c(c1)/C(=C1\CCCCN1)C(=O)N2C` [Compound 62], for which the IC50 was found to be 162 nM.

With `CC(Nc1ccc2c(c1)/C(=C1\COCCN1)C(=O)N2C1CCOCC1)C1CCCC1` (centres unmarked) [Compound 61], the concentration for half-maximal inhibition (IC50) was determined as 12 nM.

For the compound `CC(Nc1ccc2c(c1)/C(=C1\COCCN1)C(=O)N2C1CCOCC1)c1ccnn1C` (centres unmarked) [Compound 79], the IC50 was found to be 221 nM. Turning to `CN(C)c1ccc2c(c1)/C(=C1\COCCN1)C(=O)N2C` [Compound 2], the IC50 came out at 1050 nM. To `CC(C)Nc1ccc2c(c1)/C(=C1\COCCCN1)C(=O)N2C1CCOCC1` [Compound 167] belongs 134 nM; to `CC(C)N1CCC(Nc2ccc3c(c2)/C(=C2\COCCN2)C(=O)N3C2CCOCC2)CC1` [Compound 19], 168 nM; to `CC(C)Nc1ccc2c(c1)/C(=C1\CCCCN1)C(=O)N2C(C)C` [Compound 133], 23 nM.

On to `CN1C(=O)/C(=C2/CCN(C3COC3)CCN2)c2cc(N3CCCC3)ccc21` [Compound 45], for which the IC50 was 261 nM.

Take `O=C1/C(=C2/CCOCCN2)c2cc(NC3CCOC3)ccc2N1C1CCOCC1` (centres unmarked) [Compound 140]: the IC50 was determined as 524 nM. On to `CC(=O)N1CC[C@H](N2C(=O)/C(=C3/COCCN3)c3cc(NC(C)C)ccc32)C1` [Compound 170], for which the IC50 came to 159 nM.

Take `O=C1/C(=C2/COCCN2)c2cc(NC3CCOC3)ccc2N1C1CCOC1` (centres unmarked) [Compound 168]: the half-maximal inhibitory concentration (IC50) turned out to be 439 nM.

As for `CC(Nc1ccc2c(c1)/C(=C1\COCCN1)C(=O)N2C(C)C)c1ccncc1` (centres unmarked) [Compound 143], the IC50 is 110 nM.

In the case of `CC(C)N1C(=O)/C(=C2/COCCN2)c2cc(NCc3cc[nH]n3)ccc21` [Compound 74], the IC50 came out at 144 nM. To `CC(Nc1ccc2c(c1)/C(=C1\COCCN1)C(=O)N2C1CCOCC1)c1cccnc1` (centres unmarked) [Compound 100] belongs 397 nM; to `CC(C)CNc1ccc2c(c1)/C(=C1\COCCN1)C(=O)N2C(C)C` [Compound 173], 32 nM; to `CC(C)N1C(=O)/C(=C2/CCOCCN2)c2cc(NC3CCC3)ccc21` [Compound 22], 11 nM.

Turning to `CC(C)N1C(=O)/C(=C2/COCCN2)c2cc(NC3CCC(F)(F)CC3)ccc21` [Compound 72], the IC50 came to 6 nM. In the case of `CCC(CC)Nc1ccc2c(c1)/C(=C1\COCCN1)C(=O)N2C1COC1` [Compound 136] it was 18 nM; in that of `CC(C)Nc1ccc2c(c1)/C(=C1\CCCN1C)C(=O)N2C1CCOCC1` [Compound 48], 353 nM. To `CC(C)N1C(=O)C(=C2CCOCC2)c2cc(NC3CCOC3)ccc21` (centres unmarked) [Compound 160] belongs 471 nM; to `CC(C)C(C)Nc1ccc2c(c1)/C(=C1\COCCN1)C(=O)N2C1COC1` (centres unmarked) [Compound 66], 19 nM. To `O=C1/C(=C2/COCCN2)c2cc(NC3CCCC3)ccc2N1C1COCCOC1` [Compound 50] belongs 13 nM; to `CC(C)N1C(=O)C(=C2CCOCC2)c2cc(N)ccc21` [Compound 157], 1660 nM; to `O=C1/C(=C2/COCCN2)c2cc(N3CCOCC3)ccc2N1C1CCOCC1` [Compound 4], 3140 nM.

As to `CC(C)N1C(=O)/C(=C2/COCCN2)c2cc(N3CCCC3)ccc21` [Compound 130], the concentration for half-maximal inhibition (IC50) came to 45 nM. As to `O=C1/C(=C2/COCCN2)c2cc(NCC3CCOCC3)ccc2N1C1CCOCC1` [Compound 81], the IC50 is 233 nM.

Regarding `O=C1/C(=C2/COCCN2)c2cc(NCc3cc[nH]n3)ccc2N1C1CCOCC1` [Compound 21], the IC50 stood at 253 nM. In the case of `CC(C)Nc1ccc2c(c1)/C(=C1\COCCN1)C(=O)N2C(C)(C)C` [Compound 90] it was 32 nM; in that of `CC1CCC(C)N1c1ccc2c(c1)/C(=C1\COCCN1)C(=O)N2C` (centres unmarked) [Compound 84], 141 nM; in that of `CC(C)Nc1ccc2c(c1)/C(=C1\CN(C3CCOCC3)CCN1)C(=O)N2C(C)C` [Compound 134], 44 nM. Turning to `CC(Nc1ccc2c(c1)/C(=C1\COCCN1)C(=O)N2C1CCOCC1)c1cncnc1` (centres unmarked) [Compound 147], the IC50 turned out to be 422 nM. In the case of `CC(C)N1C(=O)/C(=C2/COCCN2)c2cc(N3CCOCC3)ccc21` [Compound 166] it was 649 nM; in that of `CC(C)Nc1ccc2c(c1)/C(=C1\COCCN1)C(=O)N2C1CCOC1` (centres unmarked) [Compound 163], 52 nM. For the compound `O=C1/C(=C2/COCCN2)c2cc(NC3CCCC3)ccc2N1C1COC1` [Compound 65], the IC50 came out at 18 nM. Consider `CC(C)C(C)Nc1ccc2c(c1)/C(=C1\COCCN1)C(=O)N2C1COCCOC1` (centres unmarked) [Compound 27], for which the half-inhibitory concentration (IC50) was found to be 15 nM. Turning to `CC(C)Nc1ccc2c(c1)/C(=C1\CN(C3COC3)CCN1)C(=O)N2C(C)C` [Compound 114], the IC50 was determined as 104 nM.

As for `CCOC(=O)N1CCC(N2C(=O)/C(=C3/COCCN3)c3cc(N(C)C)ccc32)CC1` [Compound 89], the IC50 is 493 nM. In the case of `COCC(C)Nc1ccc2c(c1)/C(=C1\COCCN1)C(=O)N2C1COC1` (centres unmarked) [Compound 137] it was 886 nM.

Take `CCOC(=O)N1CCC(N2C(=O)/C(=C3/COCCN3)c3cc(NC(C)C)ccc32)CC1` [Compound 10]: the IC50 came to 31 nM. With `CC(C)N1C(=O)/C(=C2/COCCN2)c2cc(NC3CCCC3)ccc21` [Compound 94], the IC50 came to 27 nM.

For the origin of these results see patent EP4291552B1, “MODULATORS OF COMPLEX I” (Boehringer Ingelheim International GmbH, priority 2021, dated 2022).
